Values quoted from earlier work in publication PMC2483489 (Acta Crystallographica Section D: Biological Crystallography, 2006).

Experiments:
Irk = settings: statement in words, no reference given
Flt-3 = settings: statement in words, no reference given
KDR = settings: statement in words, no reference given
c-Kit = settings: ref Mol et al., 2004
[1] = tested on: resistance mutants isolated from relapsed imatinib patients; settings: ref Weisberg et al., 2006, Kantarjian et al.

Binding to Irk (Irk)	Binding to Flt-3 (Flt-3)	Binding to KDR (KDR)	Binding to c-Kit (c-Kit)	Compound	Activity against imatinib-resistance mutants [1]
does not bind	does not bind	does not bind	does bind	Cc1ccc(NC(=O)c2ccc(CN3CCN(C)CC3)cc2)cc1Nc1nccc(-c2cccnc2)n1 [Imatinib, imatinib]	–
–	–	–	–	Cc1cn(-c2cc(NC(=O)c3ccc(C)c(Nc4nccc(-c5cccnc5)n4)c3)cc(C(F)(F)F)c2)cn1 [NVP-AMN107, nilotinib]	active against all but one of the resistance mutants
